Each compound was assayed against 5-hydroxytryptamine receptor 6 (Homo sapiens, UniProt P50406) (assay: Displacement of [3H]LSD from human 5HT6 receptor expressed in HEK293 cells after 1.5 hrs by liquid scintillation counting). Settings: not given; call rule not given here.
5-hydroxytryptamine receptor 6, sequence (P50406 whole entry): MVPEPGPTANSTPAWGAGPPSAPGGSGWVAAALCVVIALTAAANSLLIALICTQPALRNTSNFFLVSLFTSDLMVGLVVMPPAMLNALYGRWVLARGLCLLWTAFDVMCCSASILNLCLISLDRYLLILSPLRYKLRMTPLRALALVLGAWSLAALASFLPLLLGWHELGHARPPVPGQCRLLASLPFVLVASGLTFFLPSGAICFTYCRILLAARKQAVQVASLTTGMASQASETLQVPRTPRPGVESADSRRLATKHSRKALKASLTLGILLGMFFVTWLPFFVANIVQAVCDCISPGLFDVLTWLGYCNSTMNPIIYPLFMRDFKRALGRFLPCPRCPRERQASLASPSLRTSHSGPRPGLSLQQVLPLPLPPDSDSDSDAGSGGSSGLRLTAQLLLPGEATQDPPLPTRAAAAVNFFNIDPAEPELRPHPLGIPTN

SMILES	Ki
O=C1NCN(c2ccccc2)C12CCN(CCCC(c1ccc(F)cc1)c1ccc(F)cc1)CC2	1190 nM
CCN(CC)CCOc1ccc(C(=C(Cl)c2ccccc2)c2ccccc2)cc1 [CLOMIPHENE]	1960 nM
CN(C)CCCN1c2ccccc2CCc2ccc(Cl)cc21 [CLOMIPRAMINE]	112 nM
CNCCC=C1c2ccccc2CCc2ccccc21 [NORTRIPTYLINE]	214 nM
O=C(c1ccc(OCCN2CCCCC2)cc1)c1c(-c2ccc(O)cc2)sc2cc(O)ccc12 [RALOXIFENE]	750 nM
CC/C(=C(\c1ccccc1)c1ccc(OCCN(C)C)cc1)c1ccccc1 [TAMOXIFEN]	1040 nM
CN(C)CCOc1ccc(/C(=C(/CCCl)c2ccccc2)c2ccccc2)cc1 [TOREMIFENE]	4120 nM
OCCN1CCN(CC/C=C2/c3ccccc3Sc3ccc(Cl)cc32)CC1 [ZUCLOPENTHIXOL]	169 nM

Same assay, conditions: hek293

Ki	SMILES
Not Active	CC(NCCC(c1ccccc1)c1ccccc1)c1ccccc1 (stereo unspecified) [FENDILINE]
Not Active	O=c1cc(N2CCOCC2)oc2c(-c3ccccc3)cccc12 [LY-294002]

SMILES	Ki
COc1ccccc1N1CCN(CCCCNC(=O)c2ccc3ccccc3c2)CC1 [BP-897]	Not Active
